In PubChem BioAssay (NCI):
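Assay format: 96-well plates, 48-hour exposure. At the GI50, growth is halved. Definition used: TGI = concentration required for complete inhibition of growth.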 Where a SMILES comes first, the peptide text is derived from it. The star is where a group is joined. Trt = c1ccc(C(c2ccccc2)(c2ccccc2)*)cc1; Cbz = O=C(OCc1ccccc1)*

What was measured:
Assay in all cases: DTP human tumour cell line panel, 48 h
SNB-75 CNS = test system: SNB-75 CNS
786-0 renal = test system: 786-0 renal
PC-3 prostate = test system: PC-3 prostate
NCI-H226 lung = test system: NCI-H226 lung
NCI/ADR-RES ovarian = test system: NCI/ADR-RES ovarian
EKVX NSCLC = test system: EKVX NSCLC
IGROV1 ovarian = test system: IGROV1 ovarian
T-47D breast = test system: T-47D breast
SW-620 colon = test system: SW-620 colon
LOX IMVI melanoma = test system: LOX IMVI melanoma

| Compound | GI50 (SNB-75 CNS) [µM] | TGI (SNB-75 CNS) [µM] | GI50 (786-0 renal) [µM] | TGI (786-0 renal) [µM] | GI50 (PC-3 prostate) [µM] | TGI (PC-3 prostate) [µM] | GI50 (NCI-H226 lung) [µM] | TGI (NCI-H226 lung) [µM] | GI50 (NCI/ADR-RES ovarian) [µM] | TGI (NCI/ADR-RES ovarian) [µM] | GI50 (EKVX NSCLC) [µM] | TGI (EKVX NSCLC) [µM] | GI50 (IGROV1 ovarian) [µM] | TGI (IGROV1 ovarian) [µM] | GI50 (T-47D breast) [µM] | TGI (T-47D breast) [µM] | GI50 (SW-620 colon) [µM] | TGI (SW-620 colon) [µM] | GI50 (LOX IMVI melanoma) [µM] | TGI (LOX IMVI melanoma) [µM] |
| --- | --- | --- | --- | --- | --- | --- | --- | --- | --- | --- | --- | --- | --- | --- | --- | --- | --- | --- | --- | --- |
| O=C1/C(=C/c2ccc(Cl)c(Cl)c2)CN(C(=O)C(Cl)Cl)C/C1=C\c1ccc(Cl)c(Cl)c1 | 0.174 | 0.484 | 0.151 | 0.306 | 0.0737 | 0.712 | 0.192 | 0.366 | 0.107 | > 100 | 0.223 | 0.757 | 0.103 | 0.306 | 0.256 | 1.77 | 0.0364 | 0.196 | 0.0362 | 0.136 |
| CCCCN(CCCC)C(=O)[C@H](CC)[C@@H]1CC[C@@H](C)[C@@H]([C@H](C)[C@@H](O)[C@@H](C)C(=O)[C@H](CC)C2O[C@]3(C=C[C@@H](O)[C@]4(CC[C@@](C)([C@H]5CC[C@](O)(CC)[C@H](C)O5)O4)O3)[C@H](C)C[C@@H]2C)O1 (stereo partly drawn) | 1.78 | 26.9 | 2.49 | 7.44 | 2.05 | 16.8 | 2.01 | 5.51 | 2.5 | 9.02 | 2.32 | 8.8 | 3 | 15.2 | 2.34 | 63.8 | 2.75 | 11.1 | 1.43 | 2.97 |
| CCN(CC)c1ccc(/C=C/C(=O)c2ccc(Nc3nc(Nc4ccccc4)nc(Nc4ccccc4)n3)cc2)cc1 | 3.9 | 64.8 | 5.21 | 27.7 | 3.2 | 18.6 | 26.9 | > 100 | 4.3 | > 100 | 4.07 | > 100 | 4.64 | > 100 | 2.65 | 41 | 31.2 | > 100 | 6.87 | > 100 |
| O=C1Nc2ccc(Cl)cc2/C1=C\c1c(-c2ccc(Cl)cc2)nc2sc(C3CC3)nn12 | 1.38 | 3.19 | 4.68 | 18.8 | 5 | 19.6 | 1.7 | 4.68 | 2.85 | 10.2 |  |  | 4.12 | 15.8 | 2.41 | 22 | 7.65 | 55 | 3.15 | 10.7 |
| C=C1C(=O)O[C@H]2[C@H]1CC/C(COC(=O)c1cc(OC)c(OC)c(OC)c1)=C\CC[C@@]1(C)O[C@@H]21 | 7.92 | 21.6 | 1.27 | 2.72 | 1.8 | 4.49 | 1.4 | 3.63 | 2.87 | 13.8 | 1.78 | 4.5 | 0.477 | 2.05 | 0.931 | 3.54 | 0.355 | 1.57 | 1.34 | 2.73 |
| COC(=O)C(CO)NC(=O)C(CSC(c1ccccc1)(c1ccccc1)c1ccccc1)NC(=O)OCc1ccccc1 (stereo not drawn) (Cbz-Cys(Trt)-Ser-OMe; configuration not given here) |  | 33.7 |  | 46.9 |  | 27.4 |  | 26.4 |  | 49.5 |  | 41.1 |  | 37.3 |  | > 52 |  | 32.4 |  | 30.1 |
| Cn1cc(/C=C\[N+](=O)[O-])c2ccccc21 | 26.2 | 75.8 | > 100 | > 100 | 35.5 | > 100 | 53.3 | > 100 | > 100 | > 100 | > 100 | > 100 | 49.2 | > 100 | 55.6 | > 100 |  |  | 18 | 36 |
| CC1CC2C3CCC4=CC(=O)C=CC4(C)C3(F)C(O)CC2(C)C1(O)C(=O)COP(=O)(O)O (stereo not drawn) | > 500 | > 500 | > 500 | > 500 | > 500 | > 500 | > 500 | > 500 | > 500 | > 500 | > 500 | > 500 | > 500 | > 500 | > 500 | > 500 | > 500 | > 500 | > 500 | > 500 |
| COc1cnc2c(c1)C(=O)c1c-2n(CCCNC2=NCCS2)c(=O)c2cc(F)ccc12 | 0.358 | 18.9 | 0.271 | 1.31 | 0.208 | 18.7 | 0.247 | 1.66 | 0.34 | 11.9 | 0.897 | 24.5 | 0.434 | 15.5 | 0.0762 | 17.2 | 0.12 | 3.34 | 0.111 | 1.12 |
| NS(=O)(=O)c1ccc(Nc2cc(-c3ccc(O)c(F)c3)[nH]n2)cc1 | > 25 | > 25 | > 25 | > 25 | > 25 | > 25 | > 25 | > 25 | > 25 | > 25 | > 25 | > 25 | > 25 | > 25 | > 16.6 | > 25 | > 25 | > 25 | > 25 | > 25 |
| CCOC(=O)CSc1cc(Cl)c(C)cc1S(=O)(=O)/N=C(/N=C/c1ccc([N+](=O)[O-])s1)NNC |  |  | 20.2 | 42.5 | 25 | > 100 | 33.1 | 75.8 | 12.7 | 30.7 | 19.7 | 49.2 | 42.7 | > 100 | 12.5 | 40.1 | 31.1 | > 100 | 17.8 | 31.6 |
| CO[C@H]1C[C@@H]2CC[C@@H](C)[C@@](O)(O2)C(=O)C(=O)N2CCCC[C@H]2C(=O)O[C@H]([C@H](C)C[C@@H]2CC[C@@H](OC(=O)C(C)(CO)CO)[C@H](OC)C2)CC(=O)[C@H](C)/C=C(\C)[C@@H](O)[C@@H](OC)C(=O)[C@H](C)C[C@H](C)\C=C/C=C/C=C/1C | < 0.001 | > 10 | 0.0149 | > 10 | 0.00144 | > 10 | 0.0273 | > 10 | > 4.91 | > 10 | 0.00167 | > 10 | < 0.001 | > 10 |  | > 10 | > 10 | > 10 | 0.00435 | > 10 |
